The values that follow are results of earlier work, collected in patent US12208072B2, “Compositions for removing necrotic or infected tissues from body surface lesions and from oral cavity” (DEBx Medical Holding B.V., priority 2019, dated 2025).

The conditions of data set [1]: 25° C.
The conditions of data set [2]: for Ka1: first dissociation constant; for Ka2: second dissociation constant.

Regarding `O=[N+]([O-])O` [Nitric], the pKa (commonly the pH at which an ionisable group is half protonated) in data set [1] is reported as −1.4. With `O=C(O)O` [Carbonic], in data set [2], the Ka1 was 4.44 × 10^−7 and the Ka2 was 4.69 × 10^−11.

In the case of `O=C(O)CCC(=O)O` [Succinic], in data set [2], the Ka1 is listed as 6.21 × 10^−5 and the Ka2 is reported as 2.31 × 10^−6. For the compound Anilinium ion, the Ka1 in data set [2] was 2.50 × 10^−5.

In the case of `OCl` [Hypochlorous], the Ka1 in data set [2] is 3.0 × 10^−8. As to `OB(O)O` [Boric], the Ka1 in data set [2] is 5.81 × 10^−10. In the case of `OP(O)O` [Phosphorous], in data set [2], the Ka1 is listed as 3 × 10^−2 and the Ka2 is recorded as 1.62 × 10^−7. Turning to `O=C(O)CC(O)C(=O)O` (stereo not drawn) [Malic], in data set [2], the Ka1 is on record as 3.48 × 10^−4 and the Ka2 was 8.00 × 10^−6.
